Structures can show the parent of a compound that is named as a salt. Where two headings read alike, the source gives them in different places.
How the values were obtained:
[1] = system: isolated rat liver mitochondria; experiment: Mitochondrial swelling (absorbance at 535 nm); assay type: biochemical; settings: difference in signal between KI and DMSO treated samples at the end of experiments; for Swelling 5XCmax: key: 0 indicates that the drug had no effects (negative)
[2] = Solubility of DMSO stock for 100X/50X Cmax testing; assay type: physicochemical
Text: (§1) Supplement 204_2016_1918_MOESM3_ESM.xlsx, sheet "Sheet1" | column: 100 Cmax; 50 Cmax; note

[3] = system: isolated rat liver mitochondria; settings: positive control alamethicin treated samples
RCC IV = RCC IV activity in submitochondrial particles; assay type: biochemical, rat; design: key to RCC IV at 50XCmax / RCC IV at 100XCmax: activity relative to DMSO-treated controls (control set as 1 = 100%); settings: 50XCmax; DMSO treated samples set as 1; in %
Procedure, shortened: (§2)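 First, submitochondrial particles (1 mg/ml) are incubated with inhibitor for 15 min. Next, complex activities are followed spectrophotometrically, with RCC I taken as the difference between buffers lacking and containing rotenone. Finally, activities are expressed relative to DMSO controls set at 1.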

RCC I = RCC I activity in submitochondrial particles; assay type: biochemical, rat; design: key to RCC I at 10XCmax / RCC I at 100XCmax / RCC I at 50XCmax / RCC I at 30XCmax / RCC I at 20XCmax: activity relative to DMSO-treated controls (control set as 1 = 100%); settings: 10XCmax
Procedure, shortened: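 Activity relative to DMSO (set as 1) after 15-min exposure of submitochondrial particles (1 mg/ml) to compound. RCC I is defined as rotenone-sensitive activity and RCC II is followed at 600 nm over 6 min.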

[4] = cited from earlier work
[5] = system: isolated rat liver mitochondria; experiment: Mitochondrial inner membrane potential (MMP), Rhodamine 123; assay type: biochemical; settings: difference in signal between KI and DMSO treated samples at the end of experiments
Text: Fig. 3 KI effects on mitochondrial inner membrane potential (MMP). […] In a, c, data are means and standard derivations from three separate experiments. *p < 0.05 as compared to DMSO-treated samples at the end of experiments. In b, data are means of two independent experiments

[6] = in vivo; cited from earlier work
[7] = system: isolated rat liver mitochondria; experiment: Mitochondrial ROS production (CM-H2DCFDA); settings: DMSO treated samples set as 1
RCC III = RCC III activity in submitochondrial particles; assay type: biochemical, rat; design: key to RCC III at 100XCmax: activity relative to DMSO-treated controls (control set as 1 = 100%); settings: 100XCmax
Procedure, shortened: as §2

RCC V = RCC V activity in submitochondrial particles; assay type: biochemical, rat; for RCC V at 5XCmax: key: 0 indicates that the drug had no effects (negative)
Procedure, shortened: as §2

[8] = system: isolated rat liver mitochondria; experiment: Mitochondrial oxygen consumption (glutamate/malate or succinate driven, state 4 and state 3); assay type: biochemical; settings: DMSO treated samples set as 1; for State 3 respiration driven by succinate at 10XCmax: key: 0 indicates that the drug had no effects (negative); for State 3 respiration driven by succinate at 1XCmax: key: 0 indicates that the drug had no effects (negative)
Procedure, shortened: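 Rat liver mitochondria (1 mg/ml protein) exposed 5 min to kinase inhibitors in 0.1% DMSO, then O2 consumption measured by Clark-type electrode with glutamate/malate or succinate (state 4), ADP added after 3 min (state 3). Rates normalized to 0.1% DMSO controls set to 1.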

RCC II = biological target: T1, RCC II (Rattus norvegicus, UniProt P21913+Q641Z9+Q6PCT8+Q920L2); experiment: RCC II activity in submitochondrial particles; assay type: biochemical; design: key: activity relative to DMSO-treated controls (control set as 1 = 100%)
T1 construct: Submitochondrial particles were prepared by subjecting the intact mitochondria to three successive freeze–thaw cycles; from tissue; host or cells: rat liver mitochondria, used as submitochondrial particles
Procedure, shortened: as §2

[9] = cited from earlier work; remark: listed apart in the source
[10] = Solubility of drug in DMSO stock / reaction buffer at multiples of Cmax; assay type: physicochemical
Text: as §1

[11] = design: method as in product labeling; settings: ref product labeling, cited from earlier work
[12] = 50XCmax, DMSO treated samples set as 1
[13] = relative to DMSO treated samples

T1 sequence (Q920L2 35-656): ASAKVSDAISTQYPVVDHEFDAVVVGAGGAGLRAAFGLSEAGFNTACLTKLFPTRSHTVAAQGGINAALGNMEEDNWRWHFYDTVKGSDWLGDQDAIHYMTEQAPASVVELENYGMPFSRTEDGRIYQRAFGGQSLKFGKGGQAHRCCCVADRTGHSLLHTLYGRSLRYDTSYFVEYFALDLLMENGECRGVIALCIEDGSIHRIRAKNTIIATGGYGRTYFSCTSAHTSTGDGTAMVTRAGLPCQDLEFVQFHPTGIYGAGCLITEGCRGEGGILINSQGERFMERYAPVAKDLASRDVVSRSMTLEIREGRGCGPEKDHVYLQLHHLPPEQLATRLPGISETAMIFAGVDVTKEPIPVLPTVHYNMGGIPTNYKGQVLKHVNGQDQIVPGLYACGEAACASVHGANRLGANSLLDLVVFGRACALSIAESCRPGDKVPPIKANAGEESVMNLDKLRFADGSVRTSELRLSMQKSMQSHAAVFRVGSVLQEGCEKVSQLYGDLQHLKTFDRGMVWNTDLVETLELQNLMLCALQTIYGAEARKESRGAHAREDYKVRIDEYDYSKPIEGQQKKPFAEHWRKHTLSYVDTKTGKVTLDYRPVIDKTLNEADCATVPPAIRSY
T1 sequence (P21913 31-282): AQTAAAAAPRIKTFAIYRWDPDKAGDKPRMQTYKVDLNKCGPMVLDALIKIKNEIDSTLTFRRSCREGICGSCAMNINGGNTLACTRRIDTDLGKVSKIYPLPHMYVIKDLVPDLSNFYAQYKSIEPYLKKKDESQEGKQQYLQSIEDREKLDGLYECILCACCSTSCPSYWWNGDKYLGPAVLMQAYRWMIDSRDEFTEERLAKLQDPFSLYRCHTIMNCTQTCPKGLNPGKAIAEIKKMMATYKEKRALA
T1 sequence (Q641Z9 1-169): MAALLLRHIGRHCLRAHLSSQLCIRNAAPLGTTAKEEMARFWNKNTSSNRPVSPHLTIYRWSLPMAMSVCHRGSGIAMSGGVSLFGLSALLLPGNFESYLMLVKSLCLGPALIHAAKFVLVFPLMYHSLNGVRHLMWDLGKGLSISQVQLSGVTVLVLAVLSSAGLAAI
T1 sequence (Q6PCT8 57-159): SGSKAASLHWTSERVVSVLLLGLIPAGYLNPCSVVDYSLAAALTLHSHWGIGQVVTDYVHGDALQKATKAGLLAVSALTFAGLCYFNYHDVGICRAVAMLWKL

For `C=CC(=O)Nc1cc(Nc2nccc(-c3cn(C)c4ccccc34)n2)c(OC)cc1N(C)CCN(C)C.CS(=O)(=O)O` [osimertinib mesylate], the “Swelling 1XCmax” value [1] was 0, the “Swelling 2.5XCmax” value [1] was 0 and the “Swelling 5XCmax” value [1] was 0. The “Swelling 10XCmax” value [1] was 0, the “Swelling 20XCmax” value ([1]; 20XCmax) was 0 and the “Swelling 30XCmax” value ([1]; 30XCmax) was 0. For the same molecule, the “Swelling 50XCmax” value ([1]; 50XCmax) was 0, the “Swelling 100XCmax” value ([1]; 100XCmax) was 0 and the “note (DMSO stock)” value [2] was 50 mM will precipitate. The “Cytochrome c release 1XCmax” value [3] was 0, the “Cytochrome c release 2.5XCmax” value [3] was 0 and the “Cytochrome c release 5XCmax” value [3] was 0. The “Cytochrome c release 10XCmax” value [3] was 0, the “Cytochrome c release 20XCmax” value ([3]; 20XCmax) was 0 and the “Cytochrome c release 30XCmax” value ([3]; 30XCmax) was 0. The “Cytochrome c release 50XCmax” value ([3]; 50XCmax) was 0, the “Cytochrome c release 100XCmax” value ([3]; 100XCmax) was 6.58±0.09 percentage of the positive control group and the “RCC IV at 50XCmax” value (RCC IV) was 0. The “RCC I at 10XCmax” value (RCC I; DMSO treated samples set as 1) was 0, the Cmax ([4]; human, in vivo) was 0.5 µM and the “MMP measured by Rhodamine 123 at 1XCmax” value [5] was 0. For the same molecule, the “MMP measured by Rhodamine 123 at 2.5XCmax” value [5] was 0, the “MMP measured by Rhodamine 123 at 5XCmax” value [5] was 0 and the “MMP measured by Rhodamine 123 at 10XCmax” value [5] was 0. For the same molecule, the “MMP measured by Rhodamine 123 at 20XCmax” value ([5]; 20XCmax) was 0, the “MMP measured by Rhodamine 123 at 30XCmax” value ([5]; 30XCmax) was 0 and the “MMP measured by Rhodamine 123 at 50XCmax” value ([5]; 50XCmax) was 0. The “MMP measured by Rhodamine 123 at 100XCmax” value ([5]; 100XCmax) was 0, the Labeling for cardiotoxicity [6] was “W&P: QTc Interval Prolongation; Cardiomyopathy” and the “Potential for cardiotoxicity (based on labeling)” value [6] was 1. For the same molecule, the “ROS measured by CM-H2DCFDA at 1XCmax” value [7] was 0, the “ROS measured by CM-H2DCFDA at 2.5XCmax” value [7] was 0 and the “ROS measured by CM-H2DCFDA at 5XCmax” value [7] was 0. The “ROS measured by CM-H2DCFDA at 10XCmax” value [7] was 0, the “ROS measured by CM-H2DCFDA at 20XCmax” value ([7]; 20XCmax) was 0 and the “ROS measured by CM-H2DCFDA at 30XCmax” value ([7]; 30XCmax) was 1.38±0.13. For the same molecule, the “ROS measured by CM-H2DCFDA at 50XCmax” value ([7]; 50XCmax) was 1.80±0.32, the “ROS measured by CM-H2DCFDA at 100XCmax” value ([7]; 100XCmax) was 3.35±0.28 and the “RCC III at 100XCmax” value (RCC III) was 0. For the same molecule, the “RCC V at 5XCmax” value (RCC V; DMSO treated samples set as 1) was 0, the “RCC V at 50XCmax” value (RCC V; [12]) was 0 and the “State 3 respiration driven by succinate at 1XCmax” value ([8]; 1XCmax) was 0. For the same molecule, the “State 4 respiration driven by succinate at 1XCmax” value ([8]; 1XCmax) was 0, the “State 3 respiration driven by succinate at 2.5XCmax” value ([8]; 2.5XCmax) was 0 and the “State 4 respiration driven by succinate at 2.5XCmax” value ([8]; 2.5XCmax) was 0. The “State 3 respiration driven by succinate at 5XCmax” value ([8]; 5XCmax) was 0, the “State 4 respiration driven by succinate at 5XCmax” value ([8]; 5XCmax) was 0 and the “State 3 respiration driven by succinate at 10XCmax” value ([8]; 10XCmax) was 0. The “State 4 respiration driven by succinate at 10XCmax” value ([8]; 10XCmax) was 0, the “State 3 respiration driven by succinate at 20XCmax” value ([8]; 20XCmax) was 0 and the “State 4 respiration driven by succinate at 20XCmax” value ([8]; 20XCmax) was 0. For the same molecule, the “State 3 respiration driven by succinate at 30XCmax” value ([8]; 30XCmax) was 0, the “State 4 respiration driven by succinate at 30XCmax” value ([8]; 30XCmax) was 0 and the “State 3 respiration driven by succinate at 50XCmax” value ([8]; 50XCmax) was 0. For the same molecule, the “State 4 respiration driven by succinate at 50XCmax” value ([8]; 50XCmax) was 0, the “State 3 respiration driven by succinate at 100XCmax” value ([8]; 100XCmax) was 0 and the “State 4 respiration driven by succinate at 100XCmax” value ([8]; 100XCmax) was 0. The “RCC II at 1.0XCmax” value (RCC II; DMSO treated samples set as 1) was 0, the “RCC II at 2.5XCmax” value (RCC II; DMSO treated samples set as 1) was 0 and the “RCC II at 5XCmax” value (RCC II; DMSO treated samples set as 1) was 0. For the same molecule, the “RCC II at 10XCmax” value (RCC II; DMSO treated samples set as 1) was 0, the “RCC II at 20XCmax” value (RCC II; 20XCmax, DMSO treated samples set as 1) was 0 and the “RCC II at 30XCmax” value (RCC II; 30XCmax, DMSO treated samples set as 1) was 0. For the same molecule, the “RCC II at 50XCmax” value (RCC II; [12]) was 0 and the “RCC II at 100XCmax” value (RCC II; 100XCmax, DMSO treated samples set as 1) was 0.
With `C#Cc1cccc(Nc2ncnc3cc(OCCOC)c(OCCOC)cc23)c1` [erlotinib hydrochloride] the “Swelling 1XCmax” value [1] was 0, the “Swelling 2.5XCmax” value [1] was 0 and the “Swelling 5XCmax” value [1] was 0. For the same molecule, the “Swelling 10XCmax” value [1] was 0, the “Cytochrome c release 1XCmax” value [3] was 0 and the “Cytochrome c release 2.5XCmax” value [3] was 0. The “Cytochrome c release 5XCmax” value [3] was 0, the “Cytochrome c release 10XCmax” value [3] was 0 and the “RCC I at 10XCmax” value (RCC I; [13]) was 0. The “DILI potential (based on labeling)” value ([9]; 1 = DILI positive, 0 = negative, ref product labeling) was 1, the “Labeling for DILI” value ([9]; in vivo) was “W&P: fatal DILI” and the “Solubility of stock for 50 Cmax” value ([10]; DMSO stock for 50 Cmax) was “not soluble”. The “Solubility of stock for 100 Cmax” value ([10]; DMSO stock for 100 Cmax) was “not soluble”, the Cmax ([4]; read-out: Cmax at µM, therapeutic maximal blood concentration, ref product labeling) was 3.44 µM and the “Cmax” value ([4]; therapeutic maximal blood concentration, ref product labeling) was 1480 ng/mL. For the same molecule, the Labeling for cardiotoxicity ([11]; BBW: black box warning, W&P: Warnings and Precautions) was “W&P: Myocardial Infarction/Ischemia”, the “Potential for cardiotoxicity (based on labeling)” value [11] was 1 and the “MMP measured by Rhodamine 123 at 1XCmax” value [5] was 0. For the same molecule, the “MMP measured by Rhodamine 123 at 2.5XCmax” value [5] was 0, the “MMP measured by Rhodamine 123 at 5XCmax” value [5] was 0 and the “MMP measured by Rhodamine 123 at 10XCmax” value [5] was 0. The “ROS measured by CM-H2DCFDA at 1XCmax” value [7] was 0, the “ROS measured by CM-H2DCFDA at 2.5XCmax” value [7] was 0 and the “ROS measured by CM-H2DCFDA at 5XCmax” value [7] was 0. The “ROS measured by CM-H2DCFDA at 10XCmax” value [7] was 0, the “RCC V at 5XCmax” value (RCC V; [13]) was 0 and the “RCC V at 10XCmax” value (RCC V; 10XCmax, relative to DMSO treated samples) was 83.52±2.96. For the same molecule, the “State 3 respiration driven by glutamate/malate at 1XCmax” value ([8]; 1XCmax) was 0, the “State 3 respiration driven by succinate at 1XCmax” value ([8]; 1XCmax) was 0 and the “State 4 respiration driven by glutamate/malate at 1XCmax” value ([8]; 1XCmax) was 0. The “State 4 respiration driven by succinate at 1XCmax” value ([8]; 1XCmax) was 0, the “State 3 respiration driven by glutamate/malate at 2.5XCmax” value ([8]; 2.5XCmax) was 0 and the “State 3 respiration driven by succinate at 2.5XCmax” value ([8]; 2.5XCmax) was 0. The “State 4 respiration driven by glutamate/malate at 2.5XCmax” value ([8]; 2.5XCmax) was 0, the “State 4 respiration driven by succinate at 2.5XCmax” value ([8]; 2.5XCmax) was 0 and the “State 3 respiration driven by glutamate/malate at 5XCmax” value ([8]; 5XCmax) was 0. For the same molecule, the “State 3 respiration driven by succinate at 5XCmax” value ([8]; 5XCmax) was 0, the “State 4 respiration driven by glutamate/malate at 5XCmax” value ([8]; 5XCmax) was 0 and the “State 4 respiration driven by succinate at 5XCmax” value ([8]; 5XCmax) was 0. The “State 3 respiration driven by glutamate/malate at 10XCmax” value ([8]; 10XCmax) was 0, the “State 3 respiration driven by succinate at 10XCmax” value ([8]; 10XCmax) was 0 and the “State 4 respiration driven by glutamate/malate at 10XCmax” value ([8]; 10XCmax) was 0. For the same molecule, the “State 4 respiration driven by succinate at 10XCmax” value ([8]; 10XCmax) was 0, the “RCC II at 1.0XCmax” value (RCC II; [13]) was 0 and the “RCC II at 2.5XCmax” value (RCC II; [13]) was 0. For the same molecule, the “RCC II at 5XCmax” value (RCC II; [13]) was 0 and the “RCC II at 10XCmax” value (RCC II; [13]) was 0.

From PMC5515969, “Effects of 31 FDA approved small-molecule kinase inhibitors on isolated rat liver mitochondria” (Archives of Toxicology, 2016)
